Measured values from patent US9974825B2, “Peptides Des-[Asp1]-[Ala1], angiotensin-(1-7) agonist and pharmaceutical compositions for the treatment of diseases” (UNIVERSIDADE FEDERAL DE MINAS GERAIS, priority 2008, dated 2018).

Experiments:
[1] = system: aorta rings of Mas−/− mice; test: Vasorelaxation in precontracted aorta rings of mice with genetic deletion of the Mas receptor (Mas-/-); assay type: cell-based, mice (C57/BI-6 and FVB/N); conditions: both lineages C57/BI-6 and FVB/N, precontracted with fenilefrine 0.1 μM
Description: This example describes the vasodilating effect of Ala^1-Ang-(1-7), independently of the Mas receptor, on aorta rings of mice with genetic deletion of the Mas receptor (Mas−/−) and wild-type mice (Mas+/+) from two different lineages, C57/BI-6 and FVB/N.
The original rings of the descending thoracic aorta (2 mm), free from adipose tissue and connective tissue, were incubated in gasified solution (95% O2 and 5% CO2) of Krebs-Henseleit (mmol/L): NaCl 110.8, KCl 5.9, NaHCO3 25.0, MgSO4 1.07, CaCl2 2.49, NaH2PO4 2.33 and glucose 11.51, under a temperature of 37° C. and a 0.5 g tension, being equilibrated for 1 hour. The functional presence of endothelium was tested by its relaxing capacity produced by acetylcholine [ACh] (10 μM) on vessels precontracted with fenilefrine (0.3 μM). Only the vessels showing relaxation above 70% of extended contraction produced by fenilefrine were taken into account. […]
The aorta rings of mice Mas−/− and Mas+/+ from both lineages (C57/BI-6 and FVB/N) were precontracted to achieve the same tension level (approximately a 1.0 g tension) at a submaximum concentration of fenilefrine (0.1 μM). […] The vasodilating effects of Ala^1-Ang-(1-7) and Ang-(1-7) were expressed as a percentage of relaxation relative to the maximum contraction induced by fenilefrine. […]

[2] = target: T1, angiotensin converter enzyme (ACE) (Rattus norvegicus, UniProt P47820); test: Plasmatic ACE activity, fluorimetric method with Hip-His-Leu substrate; assay type: biochemical, Wistar rats; conditions: Wistar rat plasma
T1 construct: from tissue; host or cells: plasma of Wistar rats
T1 sequence (P47820 36-1238 limits assumed): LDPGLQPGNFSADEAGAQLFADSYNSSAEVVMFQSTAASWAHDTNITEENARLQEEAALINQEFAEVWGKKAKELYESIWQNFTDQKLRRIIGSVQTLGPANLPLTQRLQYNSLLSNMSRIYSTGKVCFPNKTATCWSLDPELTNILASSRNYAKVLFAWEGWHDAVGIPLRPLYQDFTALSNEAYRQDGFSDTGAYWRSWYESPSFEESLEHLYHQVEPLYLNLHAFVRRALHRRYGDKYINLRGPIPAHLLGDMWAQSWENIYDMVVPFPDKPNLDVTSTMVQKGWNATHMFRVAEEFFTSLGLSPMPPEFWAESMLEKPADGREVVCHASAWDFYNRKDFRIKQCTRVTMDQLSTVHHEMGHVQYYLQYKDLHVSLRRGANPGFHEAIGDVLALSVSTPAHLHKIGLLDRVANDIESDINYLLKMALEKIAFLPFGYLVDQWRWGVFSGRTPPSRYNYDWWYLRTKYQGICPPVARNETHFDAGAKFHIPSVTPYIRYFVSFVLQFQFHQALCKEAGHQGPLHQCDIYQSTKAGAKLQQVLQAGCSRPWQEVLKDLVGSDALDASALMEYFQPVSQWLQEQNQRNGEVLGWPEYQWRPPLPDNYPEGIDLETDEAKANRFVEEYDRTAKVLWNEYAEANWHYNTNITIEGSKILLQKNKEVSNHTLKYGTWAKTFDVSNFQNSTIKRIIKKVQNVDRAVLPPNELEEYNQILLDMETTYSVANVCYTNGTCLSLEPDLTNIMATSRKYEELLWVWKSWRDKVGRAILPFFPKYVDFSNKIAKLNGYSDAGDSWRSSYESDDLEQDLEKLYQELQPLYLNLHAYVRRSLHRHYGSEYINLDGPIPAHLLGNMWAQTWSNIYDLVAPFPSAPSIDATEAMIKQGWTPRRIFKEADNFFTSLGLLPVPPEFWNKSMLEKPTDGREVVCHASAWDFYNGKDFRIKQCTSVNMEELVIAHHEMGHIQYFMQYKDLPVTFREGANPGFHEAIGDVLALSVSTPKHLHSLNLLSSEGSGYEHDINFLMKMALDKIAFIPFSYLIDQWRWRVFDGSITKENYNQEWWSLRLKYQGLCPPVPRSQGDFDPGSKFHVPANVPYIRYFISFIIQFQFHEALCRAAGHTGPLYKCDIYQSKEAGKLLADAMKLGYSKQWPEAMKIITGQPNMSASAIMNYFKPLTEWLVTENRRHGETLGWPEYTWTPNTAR
Description: The plasmatic activity of ACE was measured by the fluorimetric method using Hip-His-Leu as substrate, as previously described (Santos, R. A. S. et al., Hypertension, 7:244-52, (1985)). Plasma aliquots (10 μL) of Wistar rats were incubated with a […] solution containing a 1 mM substrate (Hip-His-Leu) and 0.4 M of sodium borate, 0.9 M NaCl (pH=8.3) for 15 minutes at 37° C. The reaction was halted by adding 1.2 mL of NaOH at 0.34 M and […] of orthoftaldehyde (20 mg/mL in methanol). After 10 minutes at environment temperature, […] of HCl at 3 N was added. Later on, after a 5-minute 800×g centrifugation, the floating solution fluorescence was measured (a 365 nm excitation and a 495 nm emission). The blank was prepared by inverting the addition order of plasma and NaOH. A 0.5 to 20 nmol curve, containing the product (His-Leu) resulting of the substrate break (Hip-His-Leu) by ACE plasmatic activity, was prepared in each assay. In order to test the inhibition effect of ACE by the PEPTIDEs Ang-(1-7) and Ala^1-Ang-(1-7), 3.3×10^−7 or 3.3×10^−6 M of each PEPTIDE was added before the plasma addition. […] The percentage of enzymatic activity inhibition was estimated in function of the maximum activity obtained.

Substance: Asp^1-Arg^2-Val^3-Tyr^4-Ile^5-His^6-Pro^7 [Ang-(1-7)]
- vasodilating response [1]: absence
- ACE inhibition ([2]; peptide 3.3×10^−6 M): 85.8%
- ACE inhibition ([2]; peptide 3.3×10^−7 M): 42.4%

Substance: Ala^1-Arg^2-Val^3-Tyr^4-Ile^5-His^6-Pro^7 [Ala^1-Ang-(1-7)]
- vasodilating response [1]: totally preserved
- ACE inhibition ([2]; peptide 3.3×10^−6 M): 98.3%
- ACE inhibition ([2]; peptide 3.3×10^−7 M): 76.3%
